From US20210330611A1, “THERAPY FOR NEUROLOGICAL DISEASES/DISORDERS” (priority 2020, published 2021)
Where a name gives a salt, the structure may show the parent alone. Read-outs that look alike come from different tables or passages of the source.

Key:
[1] = tested on: LPS-induced microglia activation; assay: Image-based assay of LPS-induced microglia activation (HTS and dose response); format: cell-based, rat
[2] = tested on: fibrin- and LPS-induced microglia activation; assay: cells; format: cell-based, rat
[3] = tested on: fibrin-induced microglia activation; assay: Image-based assay of fibrin-induced microglia activation (HTS and dose response); format: cell-based, rat; settings: for inhibition at 10 µM: read-out: Fibrin % inhibition
primary rat microglia [4] = tested on: primary rat microglia;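 for Fibrin % cell toxicity: share of dead cells sized under 150 µm2 at 10 µM in fibrin-stimulated microglia HTS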
primary rat microglia [5] = tested on: primary rat microglia; remark: listed apart in the source;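 for Fibrin % cell toxicity: share of dead cells sized under 150 µm2 at 10 µM in fibrin-stimulated microglia HTS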
[6] = Rattus norvegicus, Microglia, read-out: LPS % inhibition
[7] = Rattus norvegicus, Microglia, primary HTS, 10 μM, LPS-stimulated primary microglia; read-out: LPS % inhibition
[8] = Rattus norvegicus, Microglia, primary HTS, 10 μM, fibrin-stimulated primary microglia
[9] = Rattus norvegicus, Microglia, 48 h, primary microglia HTS, LPS stimulation; increased cell size (>800 μm^2) as marker of activation; read-out: LPS % inhibition
[10] = quadrant by fibrin and LPS inhibition in HTS of 1907 compounds
[11] = Rattus norvegicus, Microglia, primary microglia HTS, fibrin stimulation, increased cell size (>800 μm^2) as marker of activation
[12] = Rattus norvegicus, Microglia, 48 h; read-out: LPS % inhibition
[13] = classification by fibrin and LPS inhibition in HTS
[14] = Rattus norvegicus, Microglia, primary microglia HTS, fibrin stimulation, cell size >800 μm2 as marker of activation
[15] = HTS of 1907 compounds, quadrant by fibrin and LPS inhibition
[16] = Rattus norvegicus, Microglia, primary microglia HTS, LPS stimulation, compounds at 10 μM; read-out: LPS % inhibition
[17] = quadrant by fibrin and LPS inhibition, HTS at 10 μM
[18] = Rattus norvegicus, Microglia, primary microglia HTS, fibrin stimulation, compounds at 10 μM
[19] = Rattus norvegicus, Microglia, primary microglia HTS, 10 μM, LPS-stimulated, cell size >800 μm^2 as marker of activation; read-out: LPS % inhibition
[20] = Rattus norvegicus, Microglia, primary microglia HTS, 10 μM, fibrin-stimulated, cell size >800 μm^2 as marker of activation
[21] = Rattus norvegicus, Microglia, 48 h, read-out: LPS % inhibition

| SMILES | Quadrant (FIG. 5b) [2] | inhibition at 10 µM ([3]; Rattus norvegicus, Microglia) | Fibrin % cell toxicity (primary rat microglia [4]; rat) | LPS % cell toxicity (primary rat microglia [5]; rat) | other results |
| --- | --- | --- | --- | --- | --- |
| CCN(CC)CCCC(C)Nc1ccnc2cc(Cl)ccc12 (centres unmarked) [Chloroquine] | Q4 | 2% | 0% | 0% | inhibition at 10 µM [1, 6]: 7% |
| CC(C[N+](C)(C)C)OC(N)=O (centres unmarked) [Bethanechol] | – | – | 1% | 0% | inhibition at 10 µM [1, 7]: 15%; Quadrant (FIG. 5b) ([2]; primary HTS, 10 μM): Q4; inhibition at 10 µM [3, 8]: 14% |
| N[C@@H](Cc1ccc(N(CCCl)CCCl)cc1)C(=O)O [Melphalan] | – | – | 0% | 0% | inhibition at 10 µM [1, 9]: 3%; Quadrant (FIG. 5b) [2, 10]: Q4; inhibition at 10 µM [3, 11]: 28% |
| Cc1ncc(CO)c(CO)c1O [Pyridoxine] | – | – | 1% | 0% | inhibition at 10 µM [1, 12]: 21%; Quadrant (FIG. 5b) [2, 13]: Q4; inhibition at 10 µM [3, 14]: 1% |
| CC(C)(Oc1ccc(C2CC2(Cl)Cl)cc1)C(=O)O (centres unmarked) [Ciprofibrate] | – | – | 0% | 1% | inhibition at 10 µM [1, 7]: 16%; Quadrant (FIG. 5b) ([2]; primary HTS, 10 μM): Q4; inhibition at 10 µM [3, 8]: -16% |
| O=C1Cc2cc(CCN3CCN(c4nsc5ccccc45)CC3)c(Cl)cc2N1 [Ziprasidone Mesylate, Ziprasidone] | – | – | – | – | LPS % inhibition ([1]; primary microglia HTS, 10 μM, LPS-stimulated, cell size >800 μm^2 as marker of activation): 35%; Quadrant (FIG. 5b) [2, 15]: Q4; Fibrin % inhibition ([3]; primary microglia HTS, 10 μM, fibrin-stimulated, cell size >800 μm^2 as marker of activation): 14%; Fibrin % cell toxicity (primary rat microglia [4]): 1%; LPS % cell toxicity (primary rat microglia [5]): 1% |
| CCN(CC)CCCC(C)Nc1c2ccc(Cl)cc2nc2ccc(OC)cc12 (centres unmarked) [Quinacrine] | – | – | 1% | 65% | inhibition at 10 µM [1, 9]: 118%; Quadrant (FIG. 5b) [2, 10]: Q1; inhibition at 10 µM [3, 11]: 24% |
| CN(C)CCCN1c2ccccc2CCc2ccc(Cl)cc21 [Clomipramine] | Q4 | -1% | 1% | 1% | inhibition at 10 µM [1, 6]: 32% |
| CN(C)CCC=C1c2ccccc2C=Cc2ccccc21 [Cyclobenzaprine] | Q4 | -29% | 0% | 1% | inhibition at 10 µM [1, 6]: 35% |
| NC[C@H]1O[C@H](O[C@H]2[C@H](O)[C@@H](O[C@H]3O[C@H](CO)[C@@H](O)[C@H](N)[C@H]3O)[C@H](N)C[C@@H]2N)[C@H](O)[C@@H](O)[C@@H]1O.O=S(=O)(O)O [Kanamycin Sulfate, Kanamycin A Sulfate] | Q4 | – | – | – | LPS % inhibition [1]: 20%; Fibrin % inhibition [3]: −13%; Fibrin % cell toxicity (primary rat microglia [4]): 0%; LPS % cell toxicity (primary rat microglia [5]): 1% |
| COc1cc2nc(N3CCN(C(=O)C4CCCO4)CC3)nc(N)c2cc1OC (centres unmarked) [Terazosin] | Q4 | -1% | 1% | 0% | inhibition at 10 µM [1, 6]: 9% |
| C=CCN1CC[C@]23c4c5ccc(O)c4O[C@H]2C(=O)CC[C@@]3(O)[C@H]1C5 [Naloxone Hydrochloride] | Q4 | – | 0% | 0% | LPS % inhibition [1]: 11%; Fibrin % inhibition [3]: −16% |
| CC(=O)c1ccc(S(=O)(=O)NC(=O)NC2CCCCC2)cc1 [Acetohexamide] | – | – | 1% | 0% | inhibition at 10 µM [1, 16]: 14%; Quadrant (FIG. 5b) [2, 17]: Q4; inhibition at 10 µM [3, 18]: 12% |
| Cc1ccc(C(=O)c2ccc(CC(=O)O)n2C)cc1 [Tolmetin] | – | – | 0% | 0% | inhibition at 10 µM [1, 19]: 28%; Quadrant (FIG. 5b) [2, 15]: Q4; inhibition at 10 µM [3, 20]: 48% |
| CCCN[C@H]1CCc2nc(N)sc2C1 [Pramipexole] | Q4 | -19% | 1% | 0% | inhibition at 10 µM [1, 21]: 1% |
| CN(C)CCC(c1ccccc1)c1ccccn1 (centres unmarked) [Pheniramine] | – | – | 1% | 0% | inhibition at 10 µM [1, 12]: 1%; Quadrant (FIG. 5b) [2, 13]: Q4; inhibition at 10 µM [3, 14]: -9% |
| CC(=O)CCCCn1c(=O)c2c(ncn2C)n(C)c1=O [Pentoxifylline] | – | – | 0% | 0% | inhibition at 10 µM [1, 12]: 6%; Quadrant (FIG. 5b) [2, 13]: Q4; inhibition at 10 µM [3, 14]: 4% |

| SMILES | Quadrant (FIG. 5b) [2] | inhibition at 10 µM ([3]; Rattus norvegicus, Microglia) | Fibrin % cell toxicity (primary rat microglia [4]; rat) | LPS % cell toxicity (primary rat microglia [5]; rat) | other results |
| --- | --- | --- | --- | --- | --- |
| CO/N=C(\C(=O)N[C@@H]1C(=O)N2C(C(=O)O)=C(COC(N)=O)CS[C@H]12)c1ccco1 [Cefuroxime] | – | – | 1% | 0% | LPS % inhibition ([1]; primary HTS, 10 μM, LPS-stimulated primary microglia): 2%; Quadrant (FIG. 5b) ([2]; primary HTS, 10 μM): Q4; Fibrin % inhibition ([3]; primary HTS, 10 μM, fibrin-stimulated primary microglia): 16% |
| O=c1n(CCCN2CCN(c3cccc(Cl)c3)CC2)nc2ccccn12 [Trazodone] | Q4 | -10% | 0% | 0% | inhibition at 10 µM [1, 6]: -2% |
| O=C(CCCN1CCC(O)(c2ccc(Cl)cc2)CC1)c1ccc(F)cc1 [Haloperidol] | Q4 | -22% | 1% | 1% | inhibition at 10 µM [1, 21]: 12% |
| Oc1ccc2ccccc2c1 [Beta-naphthol] | Q4 | -17% | 0% | 0% | inhibition at 10 µM [1, 6]: 15% |
| C1CNCCN1 [Piperazine] | Q4 | -3% | 0% | 0% | inhibition at 10 µM [1, 21]: 16% |
| CCc1cccc2c3c([nH]c12)C(CC)(CC(=O)O)OCC3 (centres unmarked) [Etodolac] | – | – | 0% | 1% | inhibition at 10 µM [1, 16]: 14%; Quadrant (FIG. 5b) ([2]; classification by fibrin and LPS inhibition, HTS at 10 μM): Q4; inhibition at 10 µM [3, 18]: -87% |
| CNCCCC1c2ccccc2C=Cc2ccccc21 [Protriptyline] | Q4 | 21% | 1% | 0% | inhibition at 10 µM [1, 21]: 15% |
| CC1=C(C/C=C(\C)CCC[C@H](C)CCC[C@H](C)CCCC(C)C)C(=O)c2ccccc2C1=O [Phylloquinone] | – | – | – | – | LPS % inhibition [1]: 31%; Quadrant (FIG. 5b) [2, 13]: Q4; Fibrin % inhibition ([3]; primary microglia HTS, fibrin stimulation, cell size >800 μm2 as marker of activation): 4%; Fibrin % cell toxicity (primary rat microglia [4]): 0%; LPS % cell toxicity (primary rat microglia [5]): 2% |
| CN1[C@@H]2CC[C@H]1C[C@@H](OC(c1ccccc1)c1ccccc1)C2 [Benztropine] | Q4 | -7% | 1% | 0% | inhibition at 10 µM [1, 6]: 30% |
| CO[C@]12C[C@@H](COC(=O)c3cncc(Br)c3)CN(C)[C@@H]1Cc1cn(C)c3cccc2c13 [Nicergoline] | – | – | 1% | 0% | inhibition at 10 µM [1, 9]: 7%; Quadrant (FIG. 5b) [2, 10]: Q4; inhibition at 10 µM [3, 11]: 6% |
| COc1cc(N)c(Cl)cc1C(=O)NC1CCN(CCCOc2ccc(F)cc2)CC1OC (centres unmarked) [Cisapride] | – | – | 0% | 0% | inhibition at 10 µM [1, 7]: 5%; Quadrant (FIG. 5b) ([2]; primary HTS, 10 μM): Q4; inhibition at 10 µM [3, 8]: -38% |
| Cl.N=C(N)NCCC[C@H](N)C(=O)O [Arginine Hydrochloride] | – | – | 0% | 2% | inhibition at 10 µM [1, 16]: 42%; Quadrant (FIG. 5b) [2, 17]: Q4; inhibition at 10 µM [3, 18]: 9% |
| CN(C)C(=O)C(CCN1CCC(O)(c2ccc(Cl)cc2)CC1)(c1ccccc1)c1ccccc1 [Loperamide] | Q1 | 12% | 1% | 2% | inhibition at 10 µM [1, 21]: 63% |
| CC(=O)OCC(=O)[C@@]1(O)[C@H](C)C[C@H]2[C@@H]3CCC4=CC(=O)C=C[C@]4(C)[C@@]3(F)[C@@H](O)C[C@@]21C [Dexamethasone acetate, reference compound] | Q2 | 112% | 4% | 7% | inhibition at 10 µM [1, 21]: 105%; IC50 ([1]; Rattus norvegicus, Microglia, read-out: LPS_IC50 (uM)): 0.002 µM; IC50 ([3]; Rattus norvegicus, Microglia, read-out: fib_IC50 (uM)): 0.002 µM |
| C[n+]1ccccc1/C=N/O [Pralidoxime] | Q4 | -12% | 1% | 0% | inhibition at 10 µM [1, 21]: 17% |
| S=P(N1CC1)(N1CC1)N1CC1 [Thiotepa] | – | – | 1% | 1% | inhibition at 10 µM [1, 19]: 15%; Quadrant (FIG. 5b) [2, 15]: Q4; inhibition at 10 µM [3, 20]: -15% |
